{"source": "ChEMBL document CHEMBL5113527", "about": "“First-in-Class Hydrazide-Based HDAC6 Selective Inhibitor with Potent Oral Anti-Inflammatory Activity by Attenuating NLRP3 Inflammasome Activation” (J Med Chem, 2022)", "key": {"[1]": {"assay": "Plasma concentration in CD-1 mouse at 20 mg/kg measured after 4 hrs by LC-MS/MS analysis", "format": "ADME, organism-based"}, "[2]": {"molecular_target": "T1, Protein deacetylase HDAC6 (Homo sapiens, UniProt Q9UBN7)", "T1 sequence (Q9UBN7 whole entry)": "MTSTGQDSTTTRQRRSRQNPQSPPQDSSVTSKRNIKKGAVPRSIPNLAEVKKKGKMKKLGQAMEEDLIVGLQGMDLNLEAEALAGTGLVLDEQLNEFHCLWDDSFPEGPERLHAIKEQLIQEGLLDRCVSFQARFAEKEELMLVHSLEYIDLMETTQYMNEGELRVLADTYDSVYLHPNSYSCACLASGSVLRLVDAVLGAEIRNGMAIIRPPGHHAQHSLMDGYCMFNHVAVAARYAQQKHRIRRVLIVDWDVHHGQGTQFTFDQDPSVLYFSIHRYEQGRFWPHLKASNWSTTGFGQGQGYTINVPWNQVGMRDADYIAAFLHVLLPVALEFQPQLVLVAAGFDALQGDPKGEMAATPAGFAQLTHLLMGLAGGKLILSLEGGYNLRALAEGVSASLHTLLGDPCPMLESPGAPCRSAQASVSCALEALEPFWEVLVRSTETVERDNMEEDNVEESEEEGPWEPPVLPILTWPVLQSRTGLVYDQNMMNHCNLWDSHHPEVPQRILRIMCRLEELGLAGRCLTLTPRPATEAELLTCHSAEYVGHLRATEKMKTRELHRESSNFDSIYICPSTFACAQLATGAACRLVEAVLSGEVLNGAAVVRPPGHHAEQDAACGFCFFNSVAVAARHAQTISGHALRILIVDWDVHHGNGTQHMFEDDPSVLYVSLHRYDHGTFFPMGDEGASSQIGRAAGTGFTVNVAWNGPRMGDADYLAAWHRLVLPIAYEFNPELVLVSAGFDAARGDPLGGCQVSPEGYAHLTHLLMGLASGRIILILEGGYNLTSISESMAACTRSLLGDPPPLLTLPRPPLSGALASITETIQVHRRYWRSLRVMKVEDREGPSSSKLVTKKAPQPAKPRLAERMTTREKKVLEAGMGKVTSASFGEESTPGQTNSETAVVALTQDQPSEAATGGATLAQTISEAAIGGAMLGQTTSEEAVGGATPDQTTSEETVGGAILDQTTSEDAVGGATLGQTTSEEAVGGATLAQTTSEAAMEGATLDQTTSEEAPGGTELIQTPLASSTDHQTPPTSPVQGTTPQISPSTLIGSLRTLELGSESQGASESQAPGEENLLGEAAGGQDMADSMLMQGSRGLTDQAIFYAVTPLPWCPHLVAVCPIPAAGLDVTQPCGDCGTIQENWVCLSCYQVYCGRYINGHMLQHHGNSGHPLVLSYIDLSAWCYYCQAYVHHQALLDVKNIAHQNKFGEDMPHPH", "assay": "Inhibition of recombinant HDAC6 (unknown origin) using Boc-Lys(acetyl)-AMC as substrate preincubated for 1 hr followed by substrate addition and measured after 2 hrs by fluorescence based microplate reader analysis"}, "[3]": {"molecular_target": "T1, Protein deacetylase HDAC6", "assay": "Inhibition of recombinant HDAC6 (unknown origin) using Boc-Lys(acetyl)-AMC as substrate preincubated for 30 mins followed by substrate addition and measured after 2 hrs by fluorescence based microplate reader analysis"}, "[4]": {"molecular_target": "T2, Protein deacetylase HDAC6 (Homo sapiens) (UniProt Q9UBN7)", "T2 sequence (whole entry)": "T1 sequence (Q9UBN7 whole entry)", "assay": "Inhibition of HDAC6 in human MV4-11 cells assessed as decrease in hyper acetylation of histone alpha tubulin preincubated for 6 hrs followed by compound washout measured after 1 hr by western blot analysis", "format": "cell-based"}, "J774.A1": {"tested_on": "J774.A1", "assay": "Inhibition of HDAC6/dynein interaction in mouse J774.A1 cells measured after 8 hrs by co-immunoprecipitation based Western blotting analysis", "format": "cell-based"}, "[5]": {"assay": "Half life in CD-1 mouse at 20 mg/kg, po measured after 0.083 to 24 hrs by LC-MS/MS analysis", "format": "ADME, organism-based", "settings": "in vivo, time 0.083-24 hrs"}, "[6]": {"assay": "Half life in CD-1 mouse at 5 mg/kg, iv measured after 0.083 to 24 hrs by LC-MS/MS analysis", "format": "ADME, organism-based", "settings": "in vivo, time 0.083-24 hrs"}, "[7]": {"molecular_target": "T1, Protein deacetylase HDAC6", "assay": "Inhibition of recombinant HDAC6 (unknown origin) using Boc-Lys(acetyl)-AMC as substrate preincubated for 60 mins followed by substrate addition and measured after 2 hrs by fluorescence based microplate reader analysis"}, "[8]": {"molecular_target": "T1, Protein deacetylase HDAC6", "assay": "Inhibition of recombinant HDAC6 (unknown origin) using Boc-Lys(acetyl)-AMC as substrate preincubated for 15 mins followed by substrate addition and measured after 2 hrs by fluorescence based microplate reader analysis"}, "Histone deacetylase 5": {"molecular_target": "Histone deacetylase 5 (Homo sapiens, UniProt Q9UQL6)", "sequence (Q9UQL6 whole entry)": "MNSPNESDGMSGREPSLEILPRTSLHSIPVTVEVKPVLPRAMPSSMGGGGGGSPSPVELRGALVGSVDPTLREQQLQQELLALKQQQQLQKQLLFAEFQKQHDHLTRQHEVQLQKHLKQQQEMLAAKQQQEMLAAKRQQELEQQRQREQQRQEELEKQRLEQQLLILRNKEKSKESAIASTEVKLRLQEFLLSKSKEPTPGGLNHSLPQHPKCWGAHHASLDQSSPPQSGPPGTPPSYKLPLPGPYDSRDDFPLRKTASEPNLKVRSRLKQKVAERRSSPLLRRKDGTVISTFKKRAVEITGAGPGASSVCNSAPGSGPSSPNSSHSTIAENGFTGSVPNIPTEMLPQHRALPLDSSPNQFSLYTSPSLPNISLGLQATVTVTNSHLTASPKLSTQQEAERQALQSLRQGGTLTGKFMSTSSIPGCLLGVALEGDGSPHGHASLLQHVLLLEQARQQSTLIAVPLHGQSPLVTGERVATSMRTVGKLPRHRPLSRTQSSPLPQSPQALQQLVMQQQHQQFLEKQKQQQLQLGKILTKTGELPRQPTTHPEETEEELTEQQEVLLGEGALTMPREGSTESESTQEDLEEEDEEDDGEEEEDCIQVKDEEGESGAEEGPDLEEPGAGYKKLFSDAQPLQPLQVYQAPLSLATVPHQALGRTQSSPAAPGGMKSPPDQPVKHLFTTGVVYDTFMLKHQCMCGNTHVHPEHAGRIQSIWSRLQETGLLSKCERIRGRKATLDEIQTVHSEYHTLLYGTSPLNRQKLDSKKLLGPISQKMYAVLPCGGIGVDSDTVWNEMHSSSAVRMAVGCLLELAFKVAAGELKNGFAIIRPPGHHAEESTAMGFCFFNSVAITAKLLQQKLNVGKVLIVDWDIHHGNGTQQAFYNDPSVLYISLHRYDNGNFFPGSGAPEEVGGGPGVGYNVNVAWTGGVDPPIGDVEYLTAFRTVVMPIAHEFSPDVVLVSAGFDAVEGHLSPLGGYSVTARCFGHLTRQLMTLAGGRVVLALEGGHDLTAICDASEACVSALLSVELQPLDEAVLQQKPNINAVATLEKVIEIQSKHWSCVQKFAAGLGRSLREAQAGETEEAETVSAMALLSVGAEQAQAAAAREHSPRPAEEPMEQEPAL", "assay": "Inhibition of recombinant HDAC5 (unknown origin) using Boc-Lys (trifluoroacetyl) AMC as substrate preincubated for 1 hr followed by substrate addition and measured after 2 hrs by fluorescence based microplate reader analysis"}, "Histone deacetylase 8": {"molecular_target": "T3, Histone deacetylase 8 (Homo sapiens, UniProt Q9BY41)", "T3 sequence (Q9BY41 whole entry)": "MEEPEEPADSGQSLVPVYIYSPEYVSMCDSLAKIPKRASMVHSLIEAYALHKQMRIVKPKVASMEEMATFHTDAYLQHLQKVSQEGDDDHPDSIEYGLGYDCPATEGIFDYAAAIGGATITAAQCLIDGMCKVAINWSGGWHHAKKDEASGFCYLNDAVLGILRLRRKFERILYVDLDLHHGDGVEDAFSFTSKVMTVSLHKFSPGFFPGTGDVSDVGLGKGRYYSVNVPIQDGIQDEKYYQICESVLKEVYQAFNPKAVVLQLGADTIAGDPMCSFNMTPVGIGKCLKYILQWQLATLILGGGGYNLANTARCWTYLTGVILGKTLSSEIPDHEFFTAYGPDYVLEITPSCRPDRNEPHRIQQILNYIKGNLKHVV", "assay": "Inhibition of recombinant HDAC8 (unknown origin) using Boc-Lys (trifluoroacetyl) AMC as substrate preincubated for 1 hr followed by substrate addition and measured after 2 hrs by fluorescence based microplate reader analysis"}, "[9]": {"assay": "Oral bioavailability in CD-1 mouse at 20 mg/kg measured after 0.083 to 24 hrs by LC-MS/MS analysis", "format": "ADME, organism-based", "settings": "in vivo, time 0.083-24 hrs"}, "Histone deacetylase 2": {"molecular_target": "Histone deacetylase 2 (Homo sapiens, UniProt Q92769)", "sequence (Q92769 whole entry)": "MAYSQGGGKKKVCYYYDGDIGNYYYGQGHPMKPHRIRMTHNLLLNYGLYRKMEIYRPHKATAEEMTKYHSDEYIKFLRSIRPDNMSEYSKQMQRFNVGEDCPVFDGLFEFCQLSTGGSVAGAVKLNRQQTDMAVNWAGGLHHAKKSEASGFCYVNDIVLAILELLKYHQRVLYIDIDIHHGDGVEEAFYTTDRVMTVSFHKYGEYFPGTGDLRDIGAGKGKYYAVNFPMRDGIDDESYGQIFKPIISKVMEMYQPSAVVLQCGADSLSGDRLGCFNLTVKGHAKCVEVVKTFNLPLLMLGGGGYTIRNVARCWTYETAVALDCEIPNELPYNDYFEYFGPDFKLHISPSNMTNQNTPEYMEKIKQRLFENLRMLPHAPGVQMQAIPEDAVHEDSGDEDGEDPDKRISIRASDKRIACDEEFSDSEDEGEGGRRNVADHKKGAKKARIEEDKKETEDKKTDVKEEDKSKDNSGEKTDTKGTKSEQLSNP", "assay": "Binding affinity to recombinant HDAC2 (unknown origin) assessed as inhibition constant using Boc-Lys(acetyl)-AMC as substrate preincubated for 1 hr followed by substrate addition and measured after 2 hrs by fluorescence based microplate reader analysis"}, "[10]": {"assay": "Ratio of drug concentration in brain to plasma of CD-1 mouse measured after 4 hrs by LC-MS/MS analysis", "format": "ADME", "settings": "read-out: BPR"}, "Histone deacetylase 1": {"molecular_target": "Histone deacetylase 1 (Homo sapiens, UniProt Q13547)", "sequence (Q13547 whole entry)": "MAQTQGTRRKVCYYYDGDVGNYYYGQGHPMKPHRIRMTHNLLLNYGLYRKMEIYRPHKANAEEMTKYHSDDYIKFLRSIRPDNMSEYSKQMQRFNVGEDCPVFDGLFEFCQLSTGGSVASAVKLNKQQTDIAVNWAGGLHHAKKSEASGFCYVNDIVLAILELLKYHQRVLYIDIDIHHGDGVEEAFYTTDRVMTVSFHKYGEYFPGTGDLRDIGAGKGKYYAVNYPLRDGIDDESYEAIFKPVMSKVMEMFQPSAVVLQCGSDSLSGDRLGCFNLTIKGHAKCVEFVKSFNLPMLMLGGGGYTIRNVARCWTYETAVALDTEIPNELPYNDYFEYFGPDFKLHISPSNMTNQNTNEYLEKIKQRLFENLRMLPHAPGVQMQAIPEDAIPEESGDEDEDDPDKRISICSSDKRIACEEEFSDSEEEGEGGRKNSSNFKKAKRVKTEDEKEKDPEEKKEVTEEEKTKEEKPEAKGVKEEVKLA", "assay": "Binding affinity to recombinant HDAC1 (unknown origin) assessed as inhibition constant using Boc-Lys(acetyl)-AMC as substrate preincubated for 1 hr followed by substrate addition and measured after 2 hrs by fluorescence based microplate reader analysis"}, "[11]": {"molecular_target": "T2, Protein deacetylase HDAC6 (Homo sapiens)", "assay": "Inhibition of full length recombinant human HDAC6 in MV4-11 cells assessed as accumulation of acetylated alpha-tubulin at 0.1 to 1 uM measured upto 24 hrs by western blot analysis", "format": "cell-based", "settings": "dose 0.1-1 µM, DDE = dose-dependent effect"}, "NCM460": {"tested_on": "NCM460", "assay": "Cytotoxicity against human NCM460 cells assessed as reduction in cell viability at 100 uM measured after 48 hrs by spectrophotometric analysis", "format": "toxicity, cell-based", "settings": "ncm460, 48 h"}}, "note": "Calls of active or inactive are those of the source. The calls are words filed in the database; no cut-off is given here.", "data": [{"smiles": "CCNNC(=O)c1ccc(CN2c3ccccc3C=Cc3ccncc32)cc1", "values": [{"measurement": "concentration at 4 h", "setting": "[1]", "value": 162, "unit": "ng/mL"}, {"measurement": "IC50", "setting": "[2]", "value": 0.019, "unit": "µM"}, {"measurement": "IC50", "setting": "[3]", "value": 0.0317, "unit": "µM"}, {"measurement": "inhibition", "setting": "[4]", "value": "Active"}, {"measurement": "inhibition", "setting": "J774.A1", "value": "Active"}, {"measurement": "half-life", "setting": "[5]", "value": 6.8, "unit": "h"}, {"measurement": "half-life", "setting": "[6]", "value": 7.95, "unit": "h"}, {"measurement": "IC50", "setting": "[7]", "value": 0.0325, "unit": "µM"}, {"measurement": "IC50", "setting": "[8]", "value": 0.257, "unit": "µM"}, {"measurement": "IC50", "setting": "Histone deacetylase 5", "value": "> 5", "unit": "µM"}, {"measurement": "IC50", "setting": "Histone deacetylase 8", "value": "> 5", "unit": "µM"}, {"measurement": "bioavailability", "setting": "[9]", "value": 93.4, "unit": "%"}, {"measurement": "Ki", "setting": "Histone deacetylase 2", "value": 1.04, "unit": "µM"}, {"measurement": "Kp at 4 h", "setting": "[10]", "value": 1.51}, {"measurement": "Ki", "setting": "Histone deacetylase 1", "value": 0.875, "unit": "µM"}, {"measurement": "inhibition", "setting": "[11]", "value": "Dde"}, {"measurement": "Activity", "setting": "NCM460", "value": "Non-Toxic"}]}]}
